# Source: ChEMBL document CHEMBL1151603, “Unsymmetrically substituted guanidines as potent histamine H3-receptor antagonists” (Bioorg Med Chem Lett, 1994)
# pKi: −log10 of the molar value.
# Legend:
# [1] = target: T1, Histamine H3 receptor (Cavia porcellus, UniProt Q9JI35); experiment: Antagonistic activity for Histamine H3 receptor on electrically evoked guinea-pig ileum contraction; assay type: functional, tissue-based
# [2] = target: T1, Histamine H3 receptor; experiment: Antagonistic activity for Histamine H3 receptor binding in guinea pig
# T1 sequence (Q9JI35 whole entry): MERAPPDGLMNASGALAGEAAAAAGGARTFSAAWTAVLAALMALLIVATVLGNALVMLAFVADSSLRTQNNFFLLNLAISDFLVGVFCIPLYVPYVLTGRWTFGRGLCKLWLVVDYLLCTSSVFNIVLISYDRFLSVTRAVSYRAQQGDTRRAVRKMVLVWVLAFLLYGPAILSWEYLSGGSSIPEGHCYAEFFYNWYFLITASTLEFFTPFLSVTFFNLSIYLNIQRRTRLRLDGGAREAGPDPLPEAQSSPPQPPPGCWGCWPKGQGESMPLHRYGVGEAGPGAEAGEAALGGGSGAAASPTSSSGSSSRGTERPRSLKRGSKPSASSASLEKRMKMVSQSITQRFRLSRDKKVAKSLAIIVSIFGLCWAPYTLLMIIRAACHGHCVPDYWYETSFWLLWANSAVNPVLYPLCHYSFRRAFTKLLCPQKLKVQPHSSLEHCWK
SMILES,pKi [1],pKi [2]
O=C(N/C(=N/CC1CCCCC1)NCCCc1c[nH]cn1)OCc1ccccc1,7.90,7.89
N=C(NCCCc1c[nH]cn1)NCC1CCCCC1,9.10,9.13
CC(C)(C)OC(=O)N/C(=N/C1CCCCC1)NCCCCc1c[nH]cn1,8.20,8.15
S=C(NC1CCCCC1)N1CCC(c2cnc[nH]2)CC1 [THIOPERAMIDE],8.40,–
CC(C)(C)OC(=O)N/C(=N\CCCc1c[nH]cn1)NCc1ccc(I)cc1,7.90,7.92
N=C(NCCc1ccccc1)NCCc1cnc[nH]1,7.00,6.96
CCOC(=O)N/C(=N/CC1CCCCC1)NCCCc1c[nH]cn1,7.40,7.44
N#CN=C(NCCCc1cnc[nH]1)NCC1CCCCC1,7.70,7.66
N=C(NCCCc1c[nH]cn1)NCc1ccc(I)cc1,8.80,8.80
CC(C)(C)OC(=O)N/C(=N/CC1CCCCC1)NCCCc1c[nH]cn1,8.00,8.02
N=C(NCCCCc1c[nH]cn1)NC1CCCCC1,8.30,8.30
